Consider three molecules from patent publication US20250189546A1, “METHODS FOR ANALYZING DRUG MOLECULES IN MAMMALIAN TISSUES” (The Scripps Research Institute, priority 2022, published 2025).

Each structure is given as a SMILES string. Entries after “also recorded” stand apart in the source; their conditions may differ. Where two headings read alike, the source gives them in different places.

The conditions of series [1]: humans, cited from earlier work.
In series [2] the target is T1, MAGL (Mus musculus, UniProt O35678).
T1 construct: from tissue; host or cells: mouse brain hemisphere, 100,000 g membrane pellet
T1 sequence (O35678 1-303): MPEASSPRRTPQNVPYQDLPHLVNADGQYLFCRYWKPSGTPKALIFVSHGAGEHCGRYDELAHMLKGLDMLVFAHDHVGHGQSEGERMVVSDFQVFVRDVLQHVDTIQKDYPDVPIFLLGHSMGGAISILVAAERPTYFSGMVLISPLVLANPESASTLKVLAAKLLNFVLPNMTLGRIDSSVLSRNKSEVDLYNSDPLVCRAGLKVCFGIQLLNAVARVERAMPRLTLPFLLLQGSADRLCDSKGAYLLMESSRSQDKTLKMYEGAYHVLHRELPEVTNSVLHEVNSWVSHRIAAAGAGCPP
In words: Gel-based CC-ABPP of whole brain lysates. The series is classed as in vivo. Particulars: 1 mg/kg. The protocol:
(§1) For in gel ABPP analysis, after anesthetizing, mice were decapitated and target tissues were harvested and flash frozen in liquid N2 without perfusion or fixation. Each mouse hemisphere and liver were washed with ice cold PBS on ice (2×1 mL) to remove excessive blood. Tissues were homogenized in 1 mL PBS and sonicated for 10 min in ice cold water. Tissues were centrifuged (1000 g, 10 min, 4° C.) and supernatant was then centrifuged at high speed (100,000 g, 45 min, 4° C.). Supernatant was discarded and remaining pellets were gently washed with ice cold PBS (2×0.5 mL). Pellets were resuspended by gentle pipetting and protein concentrations were quantified by the Bio-Rad DC Protein Assay Kit. Proteomes were then diluted to […] for immediate use or aliquoted and stored at −80° C.
(§2) In gel click chemistry ABPP assay: Click chemistry labeling of alkyne inhibitors was performed as previously reported (Niphakis et al., ACS Chem Neurosci 3, 418-426, 2012). Click reaction buffer was prepared by mixing CuSO4 (50 mM in H2O, 1.0 μL/reaction), TBTA (1.7 mM in 1:4 DMSO/t-BuOH, 3.0 μL/reaction), freshly prepared TCEP (50 mM in H2O, 1.0 μL/reaction) and 5-TAMRA azide (1.25 mM in DMSO, 1.0 μL/reaction). For every 50 μL tissue proteome ([…]), 6 μL click buffer was added. Reaction mixture was gently mixed and kept in a dark drawer for 1 hour at RT. […]

The target in series [3] is T2, FAAH (Mus musculus, UniProt O08914).
T2 construct: from tissue; host or cells: mouse brain (C57BL6J wild type)
T2 sequence (O08914 1-579): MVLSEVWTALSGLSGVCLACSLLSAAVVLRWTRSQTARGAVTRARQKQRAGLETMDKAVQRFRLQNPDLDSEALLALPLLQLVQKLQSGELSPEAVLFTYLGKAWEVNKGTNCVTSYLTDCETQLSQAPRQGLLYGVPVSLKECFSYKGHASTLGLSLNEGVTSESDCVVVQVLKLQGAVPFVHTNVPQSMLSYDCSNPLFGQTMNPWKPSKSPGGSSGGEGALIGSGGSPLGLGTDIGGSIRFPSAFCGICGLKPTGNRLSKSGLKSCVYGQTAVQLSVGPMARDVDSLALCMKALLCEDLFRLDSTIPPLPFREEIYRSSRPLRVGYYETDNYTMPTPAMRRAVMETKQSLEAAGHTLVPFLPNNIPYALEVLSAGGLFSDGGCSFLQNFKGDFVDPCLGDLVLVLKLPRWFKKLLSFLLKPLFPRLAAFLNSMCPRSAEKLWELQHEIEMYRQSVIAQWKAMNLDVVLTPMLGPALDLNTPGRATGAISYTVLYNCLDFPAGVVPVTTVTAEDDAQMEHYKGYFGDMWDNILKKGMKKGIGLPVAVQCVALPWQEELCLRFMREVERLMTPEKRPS
Description: Gel-based CC-ABPP of whole brain lysates. The series is classed as in vivo. Conditions: 20 mg/kg. The procedure:
as §1, §2

Series [4] has as its system monoacylglycerol lipase (MAGL). In words: CATCH subcellular compartment imaging in hippocampus with synapsin and MAP2 immunostaining. The series is classed as in vivo, mouse. An excerpt:
Because MAGL is restricted in localization to presynaptic axonal terminals, whereas FAAH is expressed in neuronal soma, the inventors sought to determine whether CATCH could detect on-and off-target MJN110-yne binding across subcellular compartments. The inventors focused on the well-characterized CA3 to CA1 projection in the hippocampus as it allowed us to observe both axon terminals and soma in the same field of view.
(§3) CATCH labeling: For 100-micron sections labeling, the full CATCH reaction buffer contains: 5 μM AF647-picolyl azide, 150 μM CuSO4, 300 μM BTTP, 2.5 mM sodium ascorbate, and 10% DMSO in PBS. Tissue sections were incubated in click incubation buffer (without sodium ascorbate) overnight at RT. Tissues were then transferred to newly prepared incubation buffer and 100 mM freshly prepared sodium ascorbate was subsequently added to initiate the reaction. After 1 hour at RT in the dark with minor agitation, the reaction was quenched by addition of 4 mM EDTA in PBS (pH=8.0) and samples were washed 3×10 min with PBST. After removing click reaction cocktail, samples were stained by DAPI (1:3000 dilution in PBS from 10 μM stock) for 15 min at RT and would be ready for RI matching and imaging. They could also undergo further staining for cell type registration. For 500-micron sections, 300 μM CuSO4 and 600 μM BTTP were used for incubation and reaction. To achieve full labeling, tissues were incubated at 37° C. for 2 days, and underwent 4 rounds of 1 h click reaction at RT.
Immunostaining: Samples were incubated with primary antibodies in PBST overnight at 4° C. unless otherwise noted. Samples were then washed with PBST, 3×30 min, RT and transferred to secondary antibodies diluted in PBST. Samples were incubated with secondary antibodies overnight, RT and washed with PBST 3×30 min. For antibody elution, imaged slides were dismounted, and tissues were washed by 8% PBS-SDS (pH=7.0) at 60° C. for 8 hours. Samples were then washed by PBST 3×10 min at RT to remove residual SDS and could undergo the next round of staining.
Subcellular compartment intensity analysis: For MJN110-yne characterization, images were acquired at 5 μm from the tissue surface where the highest immunostaining signal can be observed. Different cellular compartments were identified by applying a threshold in immunostaining signal and mean drug labeling intensity was measured in the selected threshold region. Three random squares were drawn in nucleus in different cells and their average intensity was used as background. The recorded intensity value in soma or axonal terminal was then subtracted by the intensity in the nucleus for background adjustment. Data was then normalized to the average intensity of the control group as indicated in each figure legends.

Series [5] has as its target T2, FAAH. In words: Competitive CATCH: parental PF7845 followed by PF7845-yne probe. The series is classed as in vivo.
From the text: After establishing CATCH's specificity, scalability, compatibility, and resolution, finally, the inventors tested if CATCH can be used to quantitatively resolve dose-dependent target engagement after in vivo drug administration. […] In this competitive CATCH approach, animals are first treated with a dose range of the parental drugs, followed by a single high dose of the alkyne probes. The dose-dependent target engagement by the parental drug can be recorded based on the competitive blockade of signal in an anatomically specific manner (FIG. 8, A).
The inventors treated mice with 0.01-1 mg/kg of parental PF7845 followed by 1 mg/kg PF7845-yne probe to readout the dose-dependent brain targets of PF7845 by competitive CATCH. […] Conversely, the inventors adopted a direct approach to visualize dose-dependent alkyne drug PK properties (FIG. 8, C).
Sample collection: Inhibitors were administered to mice in a vehicle of 10% DMSO, 2% Tween-80 in saline for intraperitoneal (i.p.) injections. After drug injection at designated dose and time, mice were heavily anesthetized with isoflurane and then transcardially perfused with ice cold PBS followed by ice cold 4% PFA in PBS with sucrose. Mouse brains or other peripheral tissues were then dissected out and post fixed in 4% PFA overnight at 4° C. Tissues were washed with PBS, embedded in 2% agarose and sectioned as 100-micron or 500-micron tissue sections by vibratome (Leica VT1000S). Tissue sections were stored in PBS with 0.02% sodium azide at 4° C. for further processing.
as §3

As for `CN(C(=O)n1cnc(-c2ccc[n+]([O-])c2)c1)C1CCCCC1` [BIA-10-2474], the “Clinical safety / toxicity” value in series [1] is “Unanticipated toxicity”; in series [1] (listed as BIA 10-2474) it was “associated with clinical neurological toxicities”.

As for `C#Cc1ccc(C(c2ccc(Cl)cc2)N2CCN(C(=O)ON3C(=O)CCC3=O)CC2)cc1` (stereo not drawn) [MJN110-yne], the “Target engagement in gel-based CC-ABPP” value in series [2] is listed as “selectively engaged MAGL”. Further, the “Off-target engagement in gel-based CC-ABPP” value in series [3] is given as “substantial off-target engagement of FAAH”. Also, the “Subcellular localisation of CATCH signal, low dose” value in series [4] (1 mg/kg, hippocampus CA1) is listed as “binding in presynaptic terminals; also recorded: restricted to synapsin positive axon terminals”. Also, the “Overall fluorescence intensity in hippocampus” value in series [4] (20 mg/kg vs 1 mg/kg) was “overall higher fluorescence intensity”. Moreover, the “Subcellular localisation of CATCH signal, high dose” value in series [4] (20 mg/kg, hippocampus) was “spread to the neuronal soma”. In series [4] (pretreatment with parent MJN110 and MAGL−/− mice), the “Specificity of CATCH signals” value was “confirmed the specificity”.

Regarding `O=C(Nc1cccnn1)N1CCC(=Cc2cccc(Oc3ccc(C(F)(F)F)cn3)c2)CC1` [PF7845], the “Clinical safety / toxicity” value in series [1] is reported as “considered a safe FAAH inhibitor”. Also, the “FAAH target binding by competitive CATCH” value in series [5] (0.01 mg/kg PF7845, then 1 mg/kg PF7845-yne) was “no target binding was detected”. Further, in series [5] (0.02 mg/kg PF7845, then PF7845-yne 1 mg/kg, 1 h, i.p.), the “FAAH inhibition by competitive CATCH, cortex vs hippocampus” value is “Cortical PF7845-yne is fully blocked; also recorded: fully inhibited in the cortex but not in the hippocampus”. For the same molecule, in series [5] (0.05 mg/kg PF7845, then 1 mg/kg PF7845-yne), the “FAAH inhibition by competitive CATCH” value is on record as “full FAAH inhibition was achieved”. For the same molecule, in series [5] (24 hours after PF7845 administration), the “Duration of FAAH blockage to competitive probe binding” value is recorded as “sustained FAAH blockage to competitive probe binding”. The “Effect of pre-treatment on PF7845-yne-generated CATCH signals across the brain” value in series [5] (pharmacological blocking experiment) is reported as “completely abolished”. Also, in series [4] (PF7845 pre-treatment, then MJN110-yne, hippocampus), the “Effect of pre-treatment on MJN110-yne binding in soma and axon terminals” value is “significantly suppressed MJN110-yne binding in the soma, but not axon terminals”.
